Experimental data as given in patent US20230416785A1, “NUCLEASE AND APPLICATION THEREOF” (CRISP-HR Therapeutics, Inc., priority 2020, published 2023).
Entries after “also recorded” stand apart in the source; their conditions may differ.

Legend:
[1] = system: A549 cells; experiment: Cellular toxicity / viability of transfected A549 cells (resazurin assay); type: cell-based
Procedure: A549 cells were chosen as they are both facile to grow and transfect, cost effective in terms of media and other reagents, and importantly have retained a functional p53 gene.
Cells were then allowed to recover for one additional day, after which viability was cells were incubated with resazurin (Millipore Sigma) for 4 hours, after which fluorescence was quantified by a plate reader (Perkin Elmer).
Unless otherwise noted, adherent cells (A549 or H1299) were seeded in 96 well plates and grown in either 50/50 F-12/DMEM or RPMI-1640 respectively, supplemented with 5% FBS and grown to roughly 70% confluency. Cells were then transfected with either Cal-Phos as described in Chen 2012 or Lipofectamine 3000 (Thermofisher). Fresh media was exchanged the next day and cellular viability was quantified on day 2.
(§1) 20 μL of 0.15 mg/mL Resazurin solution was added to cells either plated in 96 well plates for all cell lines, which were then incubated for ˜4 hours at 37° C. Cellular toxicity was quantified using a Tecan SpectraFlour Plus plate reader (Tecan) using a 535/595 filter set. Raw data was then normalized to the mean of the untransfected controls and plotted as described.
as §1, with “described. […] Stats: All two-sided students T-test with unequal variance.” for “described.”

[2] = system: endogenous H2B; experiment: H2B-mNeon knock-in HDR quantification in K562 cells; type: cell-based, human; conditions: H2B-mNeon RT, genome specific plus RT specific primers
Procedure: After two days, cells were fixed in 4% PFA washed in PBS, then directly imaged, with cells showing nuclear localized fluorescence counted as successful HDR events.
K562 were grown in 24 well plates with RPMI-1640 supplemented with 5% FBS until roughly 70% confluent. At that time cells were either electroporated using the mNeon system (Invitrogen) using optimized settings for K562 cells, or lipofectamine 3000 again following manufactures instructions. Cells were then returned to 24 well plates with fresh media and grown for at least two days before being used in downstream analysis.
After 2 days, cells attached to coverslips coated with 0.01% poly-1-lysine, and were fixed in 4% PFA (Thermofisher) for 15 minutes at RT. After fixation, cells were washed 3× in PBS, mounted in 50% glycerol and imaged on a Nikon Eclipse E600 with standard FITC filters. For quantification, random patches of cells (usually between 8-15 cells per image) were identified via Brightfield, then fluoresce images were taken with constant illumination and exposure time (100%, and 110 ms respectively).

[3] = system: HBB amplicon; experiment: In-vitro exonuclease assay with purified proteins; type: biochemical, human; conditions: 30 nM protein, 3 nM HBB amplicon, 37° C., 60 minutes
Procedure: Reactions were then electrophoresed and visualized on an agarose gel. FIG. 5C illustrates quantification of exonuclease activity. Quantification of exonuclease activity assayed in FIG. 5B. 3 replicates were performed for each reaction and were quantified via FIJI (ImageJ) and then normalized to control amplicon levels.
Reactions were then electrophoresed and visualized on an agarose gel.
DNA was isolated from wildtype K562 cells, and amplified using standard Taq DNA polymerase and HBB-out-F (5′-[…]-3′ (SEQ ID NO: 125)) and HBB-out-R (5′-[…]-3′ (SEQ ID NO: 126)), Tm=56 for 35 cycles, and purified using the Qiagen PCR cleanup kit. […] The samples were then electrophoresed on a standard 1% TAE agarose gel stained with gel green.

[4] = system: A549 cells; experiment: Pifithrin-α treatment of A549 cells transfected with Cas9 or Cas9-HR, resazurin viability; type: cell-based, human
Procedure: as §1

| Compound | cellular toxicity ([1]; Int-G2 and Int-G3, CalPhos) | toxicity targeting G-2 rather than G-3 ([1]; Int-G2 vs Int-G3) | reduction in cellular toxicity compared to Cas9 or Cas9+hExo1 ([1]; targeting HBB-G3) | PCR of 5′ and 3′ knock-in junctions [2] | exonuclease activity (reduction of full length HBB amplicon) [3] | cellular viability over a dilution series ([4]; 10 nM-10 μM Pifithrin-α, A549 cells transfected with Cas9) | effect on viability / Cas9 mediated toxicity compared to DMSO ([4]; 10 μM Pifithrin-α, A549 cells transfected with Cas9) | effect on viability / toxicity compared to DMSO ([4]; 10 μM Pifithrin-α, A549 cells transfected with Cas9-HR 8) | increase in cellular viability compared to DMSO ([4]; 10 μM Pifithrin-α, A549 cells transfected with Cas9, two days) [fold] |
| --- | --- | --- | --- | --- | --- | --- | --- | --- | --- |
| Cas9-HR 4: hExo1(1-352)-Cas9 fusion of FIG. 1A; E. coli codon optimized vector SEQ ID NO: 67 | dramatic reduction in cellular toxicity | significantly more toxicity | greatest reduction | Successful amplification | did not show Exonuclease activity; also recorded: no significant activity | – | – | – | – |
| Cc1ccc(C(=O)Cn2c3c(sc2=N)CCCC3)cc1 [Pifithrin-α] | – | – | – | – | – | dose dependent response in cellular viability; also recorded: decreasing levels of toxicity with increasing concentrations; also recorded: Dose dependent increases in cellular viability | reduces Cas9 mediated cellular toxicity; also recorded: statistically significant (p<0.001) increase in viability; also recorded: increase in cellular viability | does not affect cellular toxicity; also recorded: no significant change in cellular viability; also recorded: no effect | ~2 |
